This is an account of results in patent EP4702986A1, “POLYPEPTIDE AND USE THEREOF” (Biocells (Beijing) Biotech Co., Ltd., priority 2023, dated 2024).

Data set [1] has as its system BDNF. Kind of data set: BDNF protein expression in infarcted brain tissue, mouse model of tMCAO (ELISA). In kind it is in vivo, C57/6J mice. The procedure: Fifty-one male C57/6J mice, aged 10-12 weeks, weighing 25-30g, were housed for at least 2 days prior to the experiment to adapt to the environment (SPF Biotech). A mouse model of tMCAO was established. The mice were anesthetized with isoflurane. Their body temperature was controlled by a thermostatic blanket and monitored and maintained at 37±0.5°C. A middle incision was made in the skin on the mouse skull, the skin was pulled outward, and a bendable microneedle tip was fixed to the surface of the left parietal bone of the mouse skull. A middle incision on the neck was made to separate the right common carotid artery (CCA), external carotid artery (ECA) and internal carotid artery (ICA). […] To ensure a sustained and successful occlusion of the middle cerebral artery, we monitored local cerebral blood flow of all stroke animals with a laser speckle flowmeter (generally, the blood flow can be reduced by 40-60% after stabilized). […]
Successfully modeled C57 tMCAO mice were randomly assigned into three groups: a normal saline group, a 30µg/Kg BX229-Na administration group, and a 100µg/Kg BX229-Na administration group. […] Changes in protein markers VEGF-A and BDNF in each experimental group were detected by ELISA. […]
For orientation: ELISA stands for enzyme-linked immunosorbent assay.

Data set [2] has as its system BDNF. The data set is described as follows: BDNF protein expression in infarcted brain tissue of tMCAO mice (ELISA). In kind it is in vivo, C57/6J mice. Particulars: for BDNF: 3 times (D1, D3, D6), infarcted brain tissue after D14; for expression level of BDNF protein compared with the normal saline group: tMCAO mice. The procedure:
(§1) Fifty-one male C57/6J mice, aged 10-12 weeks, weighing 25-30g, were housed for at least 2 days prior to the experiment to adapt to the environment (SPF Biotech). A mouse model of tMCAO was established. The mice were anesthetized with isoflurane. Their body temperature was controlled by a thermostatic blanket and monitored and maintained at 37±0.5°C. A middle incision was made in the skin on the mouse skull, the skin was pulled outward, and a bendable microneedle tip was fixed to the surface of the left parietal bone of the mouse skull. A middle incision on the neck was made to separate the right common carotid artery (CCA), external carotid artery (ECA) and internal carotid artery (ICA). According to the method of Longa (Longa et al., 1989), a silicone rubber-coated suture (RWD Life Science, suture end diameter: 0.22 mm-0.23 mm, MSMC23B120PK50) was introduced through an external carotid artery incision surgery and was slowly advanced through the internal carotid artery towards the origin of the middle cerebral artery. To ensure a sustained and successful occlusion of the middle cerebral artery, we monitored local cerebral blood flow of all stroke animals with a laser speckle flowmeter (generally, the blood flow can be reduced by 40-60% after stabilized). The suture was removed 45 min after the insertion for modeling, and the incision was sutured. Afterward, 1 mL of 37°C warm saline was injected subcutaneously, and the mice were placed on a heating pad until recovery. To alleviate pain, the mice were injected subcutaneously with Tilidine after awakening from anesthesia.
(§2) Successfully modeled C57 tMCAO mice were randomly assigned into three groups: a normal saline group, a 30µg/Kg BX229-Na administration group, and a 100µg/Kg BX229-Na administration group. Each group was administered once subcutaneously in the neck 4.5 hours after occlusion (D1), and was administered once more at the same sites and at the same time points on D3 and D6. A sham group included 6 animals. 2 mL/kg was administrated subcutaneously in the neck. Garcia JH scoring was made on D7 and D14 after administration. After the completion of the scoring on D14, the mice were euthanized and harvested for infarcted brain tissues, to extract total proteins. Changes in protein markers VEGF-A and BDNF in each experimental group were detected by ELISA. Table 19: Experimental Grouping and Dosing Regimen

The subject of a further data set is VEGF-A. The data set is described as follows: VEGF-A protein expression in infarcted brain tissue of tMCAO mice (ELISA). It counts as in vivo, C57/6J mice. Particulars: for VEGF-A: 3 times s.c. (D1, D3, D6), brain tissue after D14. The procedure: as §1, §2
The conditions of data set [3]: background statement; cited from earlier work.
For the next data set, the system named is mouse model of dMACO. Kind of data set: Cerebral blood flow perfusion in mouse model of dMACO (laser speckle flowmeter). It counts as in vivo, C57 BL/6 mice. The text has this:
Eight-week-old male C57 BL/6 mice were used and acclimated for at least 3 days. On the day of experiment, the mice were anesthetized with isoflurane, and an incision of approximately 2 cm in length was made in the middle of the […]. The mice were placed under a laser speckle flowmeter to capture a video of blood flow on both sides of the brain as images of pre-ischemic blood flow perfusion. Subsequently, a skull incision (3 mm×1.5 mm) was made at the right rear of the intersection of the sagittal suture and the coronal suture with a skull drill. The distal end of the right middle cerebral artery was located under a microscope, and a No.11 suture was used to ligate the middle artery. Meanwhile, the right common carotid artery was separated and ligated. A video of blood flow on both sides of the brain was captured again as images of post-ischemic blood flow perfusion. The scalp was sutured, and the animals were rewarmed in a rewarming box. Successfully modeled dMACO mice were randomly assigned to single-dose BX-34 groups of 7, 14, and 42 µg/Kg, single-dose IRL1620 groups of 5 and 10 µg/Kg, a three-dose IRL1620 group of 10 µg/Kg, and a normal saline control group. The single-dose groups were administered via tail vein 1 h after modeling, while the three-dose group was administered via tail vein at 1 hour, 3 hours, and 5 hours after modeling. A video of blood flow on both sides of the brain of each animal was captured again at 24 hours, 48 hours, and D7 after administration. During data analysis, the ROI was introduced or the area requiring blood flow calculation was selected. The average blood flow of the selected area was calculated by double-clicking on the blood flow image. Ratios of the average blood flow perfusions on right brain after modeling, and 24 hours, 48 hours and D7 after administration, to the average blood flow on right brain before modeling were used for statistical analysis of each group.

Data set [4] has as its system rat model of pMACO. The data set is described as follows: Foot fault test in rat model of pMACO. Particulars: rat pMCAO; D7 after administration; comparison in words. In kind it is in vivo, SD rats.
For data set [5], the system named is rat model of pMACO. The data set is described as follows: Rotarod test in rat model of pMACO. In kind it is in vivo, SD rats. Particulars: IRL1620 5 µg/Kg, BX34 7 µg/Kg, BX48 5 µg/Kg, administered 3 times (2, 4, 6 hours after modeling), n=10. From the text:
Male SD rats weighing 280-300 g were used and acclimated for at least 3 days. Focal cerebral ischemia was induced by middle cerebral artery occlusion with a suture method under isoflurane anesthesia. The animals were placed in a secure supine position, and a midline incision was made to expose the right common carotid artery, external carotid artery, and internal carotid artery. A 4.0 monofilament nylon suture was advanced from the external carotid artery toward the internal carotid artery lumen until resistance was felt ( ~ 20 mm), indicating middle cerebral artery occlusion. The nylon filament was allowed to stay in place to create a permanent model of focal cerebral ischemia. Successfully modeled rats were randomly assigned to four groups: a solvent (normal saline) group (n=10), a 7 µg/Kg BX-34 group (n=10), a 5 µg/Kg BX-48 group (n=10), and a 5 µg/Kg IRL1620 group (n=10). Each group was administered once at 2 hours, 4 hours, and 6 hours, respectively, after modeling, for a total of three administrations. Grip strength was measured before administration and at 24 hours and on D3 and D7 after administration. A rotarod test and a foot fault test were performed before administration and at 24 hours and day 7 after administration. During the rotarod test, time and distance were recorded, and ratios of the measurement at 24 hours and the measurement at D7 to the pretest measurement were used as analysis indicators. The specific method for the foot fault test was as follows. The rats were placed on an elevated grid floor (29×29 cm, grid opening: 3 cm^2) for 2 minutes, and the number of foot faults (when a forelimb fell through the grid) and the total steps were recorded. % Foot fault = (the number of forelimb faults/the total number of forelimb steps) × 100.
A general note: Falling from the rotarod earlier than controls is read as motor impairment.

Structures are written as SMILES. Numbered stars: 1 amine (or outer) side, 2 acyl side, 3 side chain; on linkers, the order of the positions; unused ones are H or OH. Side chains are listed from the residue outwards. Peptide text beside a SMILES is read from it. * marks the point of attachment. C18 diacid = O=C(O)CCCCCCCCCCCCCCCCC(=O)*; γGlu = O=C(O)[C@H](CCC(=O)[*:2])N[*:1]; Fumaroyl = O=C(O)/C=C/C(=O)*; Suc = O=C(CCC(=O)[*:2])[*:1]; Lauroyl = CCCCCCCCCCCC(=O)*; AEEA = NCCOCCOCC(=O)O

For the compound `CCCCCCCCCCCC(=O)N[C@@H](CCC(=O)NCCOCCOCC(=O)NCCCC[C@H](NC(=O)[C@H](Cc1c[nH]cn1)NC(=O)[C@H](C)NC(=O)[C@H](Cc1ccccc1)NC(=O)[C@H](Cc1ccc(O)cc1)NC(=O)[C@@H](NC(=O)[C@H](C)NC(=O)[C@H](CCC(=O)O)NC(=O)[C@H](CCC(=O)O)NC(=O)[C@H](CC(=O)O)NC(=O)/C=C/C(=O)O)C(C)C)C(=O)N[C@@H](CC(=O)O)C(=O)N[C@H](C(=O)N[C@H](C(=O)N[C@@H](Cc1c[nH]c2ccccc12)C(=O)O)[C@@H](C)CC)C(C)C)C(=O)O` [BX229-Na] (Fumaroyl-DEEAVYFAHK([AEEA-γGlu-Lauroyl])DVIW-OH), the “expression level of BDNF protein compared with the normal saline group” value with BDNF [1] (30µg/Kg three-dose group) is given as “higher than that in the normal saline group”; in the data set with BDNF [1] (100µg/Kg three-dose group), “higher than that in the normal saline group”; in the data set on BDNF [2] (30µg/Kg three-dose group), “higher”; with BDNF [2] (100µg/Kg three-dose group), “higher”. Also, the BDNF in the data set on BDNF [2] (30 µg/Kg subcutaneously) turned out to be 1103 ± 582 pg/mL; with BDNF [2] (100 µg/Kg subcutaneously), 1334 ± 665 pg/mL. Moreover, the results for the “expression level of VEGF-A protein compared with the normal saline group” value in the data set with VEGF-A (30µg/Kg three-dose group) and in the data set on VEGF-A (100µg/Kg three-dose group) were “higher” and “significantly different”, respectively. For the same compound, the values for the VEGF-A in the data set on VEGF-A (30 µg/Kg) and in the data set on VEGF-A (100 µg/Kg) were 441 ± 102 pg/mL and 562 ± 56 pg/mL, respectively.
As for `CC[C@H](C)[C@H](NC(=O)[C@H](CC(=O)O)NC(=O)[C@H](CC(C)C)NC(=O)[C@H](Cc1c[nH]cn1)NC(=O)[C@H](C)NC(=O)[C@H](Cc1ccccc1)NC(=O)[C@H](Cc1ccc(O)cc1)NC(=O)[C@@H](NC(=O)[C@H](C)NC(=O)[C@H](CCC(=O)O)NC(=O)[C@H](CCC(=O)O)NC(=O)[C@H](CC(=O)O)NC(=O)CCC(=O)O)C(C)C)C(=O)N[C@H](C(=O)N[C@@H](Cc1c[nH]c2ccccc12)C(=O)O)[C@@H](C)CC` [IRL1620, reference compound] (Suc-DEEAVYFAHLDIIW-OH), the half-life result in data set [3] is “less than 2 minutes”. For the same compound, the “cerebral blood flow perfusion amount compared to the normal saline group” value with mouse model of dMACO (dMCAO mice, single dose of 5 µg/kg via tail vein) was “no significant differences”; with mouse model of dMACO (mouse, in vivo), “no significant differences”.
Turning to `CC[C@H](C)[C@H](NC(=O)[C@H](CC(=O)O)NC(=O)[C@H](CCCCNC(=O)COCCOCCNC(=O)COCCOCCNC(=O)CC[C@H](NC(=O)CCCCCCCCCCCCCCCCC(=O)O)C(=O)O)NC(=O)[C@H](Cc1c[nH]cn1)NC(=O)[C@H](C)NC(=O)[C@H](Cc1ccccc1)NC(=O)[C@H](Cc1ccc(O)cc1)NC(=O)[C@@H](NC(=O)[C@H](C)NC(=O)[C@H](CCC(=O)O)NC(=O)[C@H](CCC(=O)O)NC(=O)[C@H](CC(=O)O)NC(=O)/C=C/C(=O)O)C(C)C)C(=O)N[C@H](C(=O)N[C@@H](Cc1c[nH]c2ccccc12)C(=O)O)[C@@H](C)CC` [BX-34] (Fumaroyl-DEEAVYFAHK([AEEA-AEEA-γGlu-C18 diacid])DIIW-OH), the “percentages of foot faults” value with rat model of pMACO [4] is “lower than that of the saline group and the IRL1620 group”. Moreover, in the data set with rat model of pMACO [5] (7D relative to pretest), the “Rotarod Test 7D/pretest (%) Distance, m” value is recorded as 49.60%±49.48%; the “Rotarod Test 7D/pretest (%) Time, s” value is on record as 65.5%±29.94%; the “Rotarod Test 7D/pretest (%) Velocity” value is on record as 62.27%±34.12%. Besides, in the data set on rat model of pMACO [5] (24h relative to pretest), the “Rotarod Test 24h/pretest (%) Distance, m” value is 28.25%±44.00%; the “Rotarod Test 24h/pretest (%) Time, s” value is recorded as 38.34%±38.08%; the “Rotarod Test 24h/pretest (%) Velocity” value is 39.09%±35.03%. In the data set with mouse model of dMACO (dMCAO mice, single dose of 42 µg/kg via tail vein, 24 hours, 48 hours and D7 after administration), the “cerebral blood flow perfusion amount compared to the normal saline group” value was “significantly increased”.
